Entries after “also recorded” stand apart in the source; their conditions may differ.
Assays:
[1] = biological target: T1, hCA I (Homo sapiens, UniProt P00915); assay: stopped-flow CO2 hydrase assay, hCA I; assay type: biochemical; conditions: for inhibition of hCA I (in words): result stated in words; for Ki: recombinant hCA I, CO2 hydration, 15 min preincubation
T1 construct: made in house
Description: (§1) An Applied Photophysics stopped-flow instrument has been used for assaying the CA catalysed CO2 hydration activity. Phenol red (0.2 mM) has been used as indicator, working at the absorbance maximum of 557 nm, with 20 mM Hepes (pH 7.5, for α-CAs) as buffer, and 20 mM NaClO4 (for maintaining constant the ionic strength), following the initial rates of the CA-catalysed CO2 hydration reaction for a period of 10–100 s. The CO2 concentrations ranged from 1.7 to 17 mM for the determination of the kinetic parameters and inhibition constants. In particular, CO2 was bubbled in distilled deionised water for 30 min till saturation. A CO2 kit (Sigma, Milan, Italy) was used to measure the concentration in serially diluted solutions from the saturated one at the same temperature. For each inhibitor at least six traces of the initial 5–10% of the reaction have been used for determining the initial velocity. The uncatalysed rates were determined in the same manner and subtracted from the total observed rates. Stock solutions of inhibitor ([…]) were prepared in distilled–deionised water and dilutions up to 0.1 nM were done thereafter with the assay buffer. Inhibitor and enzyme solutions were preincubated together for 15 min at room temperature prior to assay, in order to allow for the formation of the E–I complex or for the eventual active site mediated hydrolysis of the inhibitor. The inhibition constants were obtained by non-linear least-squares methods using PRISM 3 and the Cheng–Prusoff equation and represent the average from at least three different determinations. All recombinant CA isoforms were obtained in-house as previously reported[24]^,[25].

[2] = biological target: T2, hCA IX (Homo sapiens, UniProt Q16790); assay: stopped-flow CO2 hydrase assay, hCA IX; assay type: biochemical; conditions: for inhibition of hCA IX (in words): result stated in words
T2 construct: made in house
Description: as §1

[3] = biological target: T3, hCA II (Homo sapiens, UniProt P00918); assay: stopped-flow CO2 hydrase assay, hCA II; assay type: biochemical; conditions: for inhibition of hCA II (in words): result stated in words; for Ki: recombinant hCA II, CO2 hydration, 15 min preincubation
T3 construct: made in house
Description: as §1

[4] = biological target: T4, hCA XII (Homo sapiens, UniProt O43570); assay: stopped-flow CO2 hydrase assay, hCA XII; assay type: biochemical; conditions: result stated in words
T4 construct: made in house
Description: as §1

T1 sequence (P00915 whole entry): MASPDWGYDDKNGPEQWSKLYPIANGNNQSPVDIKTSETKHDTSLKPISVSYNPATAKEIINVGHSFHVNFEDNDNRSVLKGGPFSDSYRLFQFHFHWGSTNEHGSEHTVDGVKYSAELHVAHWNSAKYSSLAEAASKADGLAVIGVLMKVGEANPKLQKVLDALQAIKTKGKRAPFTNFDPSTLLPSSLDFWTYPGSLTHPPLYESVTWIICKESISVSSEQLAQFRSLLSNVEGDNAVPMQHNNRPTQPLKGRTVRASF
T4 sequence (O43570 25-354): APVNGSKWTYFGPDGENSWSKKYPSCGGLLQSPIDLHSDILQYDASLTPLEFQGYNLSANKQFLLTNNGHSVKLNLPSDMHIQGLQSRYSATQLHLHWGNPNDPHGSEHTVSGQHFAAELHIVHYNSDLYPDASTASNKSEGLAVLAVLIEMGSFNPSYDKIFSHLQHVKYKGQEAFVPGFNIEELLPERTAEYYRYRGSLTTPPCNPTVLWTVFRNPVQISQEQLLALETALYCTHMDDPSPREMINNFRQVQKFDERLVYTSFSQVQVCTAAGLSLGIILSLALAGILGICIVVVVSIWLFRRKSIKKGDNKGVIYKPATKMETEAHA

Row | inhibition of hCA I (in words) [1] | inhibition of hCA IX (in words) [2] | inhibition of hCA II (in words) [3] | inhibition of hCA XII (in words) [4] | Ki [1] [nM] | Ki ([2]; recombinant hCA IX, CO2 hydration, 15 min preincubation) [nM] | Ki [3] [nM] | melting point | Structure (SMILES)
1 | completely inactive | completely inactive | completely inactive | completely inactive |  |  |  |  | CC(C)(Oc1ccc(Cl)cc1)C(=O)NS(=O)(=O)c1ccccc1 [Compound 15]
2 | completely inactive | completely inactive | completely inactive | completely inactive |  |  |  |  | Cc1ccc(C)c(OCCCC(C)(C)C(=O)NS(=O)(=O)c2ccccc2)c1 [Compound 16]
3 | moderate inhibition | moderate inhibition | moderate inhibition |  |  |  |  |  | CC(C)(Oc1ccc(CCNC(=O)c2ccc(Cl)cc2)cc1)C(=O)NS(=O)(=O)c1ccccc1 [Compound 17]
4 |  |  |  |  |  |  |  | 188 to 189 °C | COc1ccc(S(=O)(=O)NC(=O)C(C)(C)Oc2ccc(C(=O)c3ccc(Cl)cc3)cc2)cc1 [Compound 20, 2-[4-(4-Chlorobenzoyl)phenoxy]-N-[(4-methoxyphenyl)sulfonyl]-2-methylpropanamide]
5 |  |  |  |  | < 10000 |  |  | 204 to 205 °C (dec.) | CC(C)(Oc1ccc(C(=O)c2ccc(Cl)cc2)cc1)C(=O)NS(=O)(=O)c1ccc(Cl)cc1 [Compound 21, 2-[4–(4-Chlorobenzoyl)phenoxy]-N-[(4-chlorophenyl)sulfonyl]-2-methylpropanamide]
6 |  |  |  |  |  |  | 16 | 196 to 198 °C | CC(C)(Oc1ccc(C(=O)c2ccc(Cl)cc2)cc1)C(=O)NS(=O)(=O)c1ccc([N+](=O)[O-])cc1 [Compound 22, 2-[4–(4-Chlorobenzoyl)phenoxy]-2-methyl-N-[(4-nitrophenyl)sulfonyl]propanamide]
7 |  |  |  |  |  |  |  | 226 to 228 °C | CC(=O)Nc1ccc(S(=O)(=O)NC(=O)C(C)(C)Oc2ccc(C(=O)c3ccc(Cl)cc3)cc2)cc1 [Compound 23, N-{[4-(acetylamino)phenyl]sulfonyl}-2-[4–(4-chlorobenzoyl)phenoxy]-2-methylpropanamide]
8 | marked effect |  | marked effect |  | < 10000 |  | 77 | 232 to 234 °C | CC(C)(Oc1ccc(C(=O)c2ccc(Cl)cc2)cc1)C(=O)NS(=O)(=O)c1ccc(NC(=O)c2ccccc2)cc1 [Compound 24, N-{4-[({2-[4–(4-chlorobenzoyl)phenoxy]-2-methylpropanoyl}amino)sulfonyl]phenyl} benzamide]
9 | did not induce a sensible inhibition | did not induce a sensible inhibition | did not induce a sensible inhibition | did not induce a sensible inhibition |  |  |  | 61 to 62 °C | O=C(COc1ccc(C(=O)c2ccccc2)cc1)NS(=O)(=O)c1ccccc1 [Compound 26, 2-(4-Benzoylphenoxy)-N-(phenylsulphonyl)acetamide]
10 | did not induce a sensible inhibition | did not induce a sensible inhibition | did not induce a sensible inhibition | did not induce a sensible inhibition |  |  |  |  | CCCC(Oc1ccc(C(=O)c2ccccc2)cc1)C(=O)NS(=O)(=O)c1ccccc1 (stereo not shown) [Compound 27, 2-(4-Benzoylphenoxy)-N-(phenylsulphonyl)pentanamide]

Row | Structure (SMILES) | inhibition of hCA I (in words) [1] | inhibition of hCA IX (in words) [2] | inhibition of hCA II (in words) [3] | inhibition of hCA XII (in words) [4] | Ki [1] [nM] | Ki ([2]; recombinant hCA IX, CO2 hydration, 15 min preincubation) [nM] | Ki [3] [nM] | melting point
11 | CC(C)(Oc1ccc(C(=O)c2ccc(Cl)cc2)cc1)C(=O)NS(=O)(=O)c1ccccc1 [Compound 18] | moderate inhibition; also recorded: submicromolar | moderate inhibition; also recorded: submicromolar | moderate inhibition |  | < 10000 | 440 | 1300 | 

Reference: article PMC6522927, “Fibrate-based N-acylsulphonamides targeting carbonic anhydrases: synthesis, biochemical evaluation, and docking studies” (Journal of Enzyme Inhibition and Medicinal Chemistry, 2019)
